Assay results taken from patent US20230286970A1, “NOVEL OXADIAZOLE-BASED SELECTIVE HDAC6 INHIBITORS” (ITALFARMACO S.P.A., priority 2020, published 2023).

Experiments:
recombinant human HDAC6 = recombinant human HDAC6 (Homo sapiens (Human), UniProt Q9UBN7); test: Enzymatic screening, HDAC6 inhibition (fluorogenic FdL_G substrate); assay type: biochemical
Method in brief: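 Enzyme was preincubated with compound (8 doses, triplicate, 1% DMSO) in 25 mM Tris-HCl pH 8, 130 mM NaCl, 0.05% Tween-20, 10% glycerol, with BSA. A FLUOR DE LYS-Green substrate was then added, and fluorescence was read after developer plus 2 μM TSA.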

recombinant human HDAC1 = recombinant human HDAC1 (Homo sapiens (Human), UniProt Q13547); test: Enzymatic screening, HDAC1 inhibition (fluorogenic FdL_G substrate); assay type: biochemical
Method in brief: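 Recombinant human HDAC1 inhibition was measured fluorometrically using the FLUOR DE LYS-Green (FdL_G) substrate. Compounds at 8 doses (1% DMSO final) in Tris-HCl pH 8 buffer with NaCl, Tween-20 and glycerol were preincubated in triplicate with enzyme and 1 mg/mL BSA, then given substrate. Developer I plus 2 μM TSA was added, and fluorescence read after 25 minutes in the dark.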

Chain of recombinant human HDAC1 (Q13547 whole entry): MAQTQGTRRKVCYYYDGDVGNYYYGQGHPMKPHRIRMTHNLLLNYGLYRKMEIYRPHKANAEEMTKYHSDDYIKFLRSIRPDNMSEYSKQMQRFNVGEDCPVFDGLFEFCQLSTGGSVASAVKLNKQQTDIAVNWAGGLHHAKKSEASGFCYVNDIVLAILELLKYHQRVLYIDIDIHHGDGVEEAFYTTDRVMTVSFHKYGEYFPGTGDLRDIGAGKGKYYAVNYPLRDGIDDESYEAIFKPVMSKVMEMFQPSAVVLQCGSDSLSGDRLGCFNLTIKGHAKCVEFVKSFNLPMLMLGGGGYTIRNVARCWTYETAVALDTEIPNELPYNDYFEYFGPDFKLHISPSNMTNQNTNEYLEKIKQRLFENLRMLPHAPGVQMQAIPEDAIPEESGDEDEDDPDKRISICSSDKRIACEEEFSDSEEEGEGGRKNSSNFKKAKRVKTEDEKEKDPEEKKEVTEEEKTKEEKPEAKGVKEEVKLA
Chain of recombinant human HDAC6 (Q9UBN7 whole entry): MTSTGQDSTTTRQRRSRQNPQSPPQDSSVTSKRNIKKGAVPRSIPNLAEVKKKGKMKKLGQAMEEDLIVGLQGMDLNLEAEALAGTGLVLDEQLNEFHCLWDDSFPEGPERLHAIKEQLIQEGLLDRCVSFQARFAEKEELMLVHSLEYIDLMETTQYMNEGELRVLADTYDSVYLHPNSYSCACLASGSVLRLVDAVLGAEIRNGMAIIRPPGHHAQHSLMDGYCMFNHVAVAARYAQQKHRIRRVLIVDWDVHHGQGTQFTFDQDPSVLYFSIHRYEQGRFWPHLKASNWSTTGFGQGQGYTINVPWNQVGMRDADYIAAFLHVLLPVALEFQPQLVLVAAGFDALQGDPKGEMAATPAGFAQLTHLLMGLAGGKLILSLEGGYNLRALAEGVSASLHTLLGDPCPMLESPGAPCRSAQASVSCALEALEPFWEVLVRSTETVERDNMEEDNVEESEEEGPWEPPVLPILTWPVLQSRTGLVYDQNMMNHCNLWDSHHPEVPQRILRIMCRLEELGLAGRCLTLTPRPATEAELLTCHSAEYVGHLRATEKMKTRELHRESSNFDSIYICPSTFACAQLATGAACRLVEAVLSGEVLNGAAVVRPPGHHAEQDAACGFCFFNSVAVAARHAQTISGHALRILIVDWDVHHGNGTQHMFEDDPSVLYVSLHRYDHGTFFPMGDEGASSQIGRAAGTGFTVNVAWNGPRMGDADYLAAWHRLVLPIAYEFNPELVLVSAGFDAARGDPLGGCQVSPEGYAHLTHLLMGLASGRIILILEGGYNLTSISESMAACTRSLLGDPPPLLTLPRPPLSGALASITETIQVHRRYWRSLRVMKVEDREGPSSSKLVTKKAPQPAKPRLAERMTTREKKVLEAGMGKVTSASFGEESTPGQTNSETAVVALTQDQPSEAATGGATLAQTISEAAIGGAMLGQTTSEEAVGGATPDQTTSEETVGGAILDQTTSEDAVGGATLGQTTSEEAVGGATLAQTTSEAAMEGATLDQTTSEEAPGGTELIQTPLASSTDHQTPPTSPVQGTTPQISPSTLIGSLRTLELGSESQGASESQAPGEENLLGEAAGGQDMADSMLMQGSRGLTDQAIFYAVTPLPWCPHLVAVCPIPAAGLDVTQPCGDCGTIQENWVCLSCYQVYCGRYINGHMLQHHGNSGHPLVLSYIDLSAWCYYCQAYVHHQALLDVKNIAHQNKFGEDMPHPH

## Nc1ccc(-n2cc(Cc3ccc(-c4nnc(C(F)F)o4)cc3)nn2)cc1 [compound 315, 4-[4-[[4-[5-(difluoromethyl)-1,3,4-oxadiazol-2-yl]phenyl]methyl]triazol-1-yl]aniline]
Recombinant human HDAC6
  IC50: 668 nM
Recombinant human HDAC1
  IC50: > 1e+06 nM

## Nc1nc2ccc(-c3cn(Cc4cc(F)c(-c5nnc(C(F)F)o5)cc4F)nn3)cc2s1 [compound 343, 6-[1-[[4-[5-(difluoromethyl)-1,3,4-oxadiazol-2-yl]-2,5-difluorophenyl]methyl]triazol-4-yl]-1,3-benzothiazol-2-amine]
Recombinant human HDAC6
  IC50: 31 nM
Recombinant human HDAC1
  IC50: > 1e+06 nM

## O=[N+]([O-])c1ccccc1-c1nnn(Cc2ccc(-c3nnc(C(F)F)o3)cc2)n1 [compound 150, 2-(difluoromethyl)-5-(4-((5-(2-nitrophenyl)-2H-tetrazol-2-yl)methyl)phenyl)-1,3,4-oxadiazole]
Recombinant human HDAC6
  IC50: 64 nM
Recombinant human HDAC1
  IC50: > 200000 nM

## Cn1c(N)nc2cc(-c3cn(Cc4ccc(-c5nnc(C(F)F)o5)cc4)cn3)ccc21 [compound 329, 5-[1-[[4-[5-(difluoromethyl)-1,3,4-oxadiazol-2-yl]phenyl]methyl]imidazol-4-yl]-1-methylbenzimidazol-2-amine]
Recombinant human HDAC6
  IC50: 27 nM
Recombinant human HDAC1
  IC50: > 1e+06 nM

## CCC[C@@H](c1ccc(-c2nnc(C(F)F)o2)cc1)n1cc(-c2cccc(NC(=O)N3CCOCC3)c2)nn1 (stereo in doubt) [compound 205, N-(3-(1-(1-(4-(5-(difluoromethyl)-1,3,4-oxadiazol-2-yl)phenyl)butyl)-1H-1,2,3-triazol-4-yl)phenyl)morpholine-4-carboxamide]
Recombinant human HDAC6
  IC50: 122 nM
Recombinant human HDAC1
  IC50: > 200000 nM

## Nc1nc2ccc(-c3cn(Cc4ccc(-c5nnc(C(F)F)o5)cc4F)nn3)cc2s1 [compound 339, 6-[1-[[4-[5-(difluoromethyl)-1,3,4-oxadiazol-2-yl]-2-fluorophenyl]methyl]triazol-4-yl]-1,3-benzothiazol-2-amine]
Recombinant human HDAC6
  IC50: 24 nM
Recombinant human HDAC1
  IC50: > 1e+06 nM

## Nc1ccc(-c2cn(C(CCCO)c3ccc(-c4nnc(C(F)F)o4)cc3)nn2)cn1 (stereo not drawn) [compound 335, 4-(4-(6-aminopyridin-3-yl)-1H-1,2,3-triazol-1-yl)-4-(4-(5-(difluoromethyl)-1,3,4-oxadiazol-2-yl)phenyl)butan-1-ol]
Recombinant human HDAC6
  IC50: 62 nM
Recombinant human HDAC1
  IC50: > 1e+06 nM

## NCC(=O)Nc1cccc(-c2cn(Cc3c(F)cc(-c4nnc(C(F)F)o4)cc3F)nn2)c1 [Compd. 144, 2-amino-N-(3-(1-(4-(5-(difluoromethyl)-1,3,4-oxadiazol-2-yl)-2,6-difluorobenzyl)-1H-1,2,3-triazol-4-yl)phenyl)acetamide]
Recombinant human HDAC6
  IC50: 60 nM
Recombinant human HDAC1
  IC50: > 200000 nM

## FC(F)c1nnc(-c2ccc(Cn3cc(-c4cnc5cccnn45)nn3)nc2)o1 [compound 74, 2-(difluoromethyl)-5-(6-((4-(imidazo[1,2-b]pyridazin-3-yl)-1H-1,2,3-triazol-1-yl)methyl)pyridin-3-yl)-1,3,4-oxadiazole]
Recombinant human HDAC6
  IC50: 31 nM
Recombinant human HDAC1
  IC50: > 200000 nM

## Cn1c(N)nc2cc(-c3nnnn3Cc3ncc(-c4nnc(C(F)F)o4)cn3)ccc21 [compound 291, 5-(1-((5-(5-(difluoromethyl)-1,3,4-oxadiazol-2-yl)pyrimidin-2-yl)methyl)-1H-tetrazol-5-yl)-1-methyl-1H-benzo[d]imidazol-2-amine]
Recombinant human HDAC6
  IC50: 129 nM
Recombinant human HDAC1
  IC50: > 200000 nM

## O=C(Nc1cccc(-c2cn(Cc3ccc(-c4nnc(C(F)F)o4)cc3F)nn2)c1)N1CCOCC1 [compound 47, N-(3-(1-(4-(5-(difluoromethyl)-1,3,4-oxadiazol-2-yl)-2-fluorobenzyl)-1H-1,2,3-triazol-4-yl)phenyl)morpholine-4-carboxamide]
Recombinant human HDAC6
  IC50: 21 nM
Recombinant human HDAC1
  IC50: > 30000 nM

## [2H]C([2H])(c1ccc(-c2nnc(C(F)F)o2)cc1)n1cc(-c2ccc(N)nc2)nn1 [compound 356, 5-[1-[dideuterio-[4-[5-(difluoromethyl)-1,3,4-oxadiazol-2-yl]phenyl]methyl]triazol-4-yl]pyridin-2-amine]
Recombinant human HDAC6
  IC50: 43 nM
Recombinant human HDAC1
  IC50: > 1e+06 nM

## Nc1ncc(-c2cccc(-c3nnn(Cc4ccc(-c5nnc(C(F)F)o5)cc4)n3)c2)s1 [compound 200, 5-(3-(2-(4-(5-(difluoromethyl)-1,3,4-oxadiazol-2-yl)benzyl)-2H-tetrazol-5-yl)phenyl)thiazol-2-amine]
Recombinant human HDAC6
  IC50: 113 nM
Recombinant human HDAC1
  IC50: > 200000 nM

## Nc1cc2cc(-c3cn(Cc4ccc(-c5nnc(C(F)F)o5)cc4Cl)nn3)ccc2cn1 [compound 404, 6-(1-(2-chloro-4-(5-(difluoromethyl)-1,3,4-oxadiazol-2-yl)benzyl)-1H-1,2,3-triazol-4-yl)isoquinolin-3-amine]
Recombinant human HDAC6
  IC50: 178 nM
Recombinant human HDAC1
  IC50: 1e+06 nM

## FC(F)c1nnc(-c2ccc(Cn3nnc(-c4cccs4)n3)cc2)o1 [compd. 261, 2-(difluoromethyl)-5-(4-((5-(thiophen-2-yl)-2H-tetrazol-2-yl)methyl)phenyl)-1,3,4-oxadiazole]
Recombinant human HDAC6
  IC50: 181 nM
Recombinant human HDAC1
  IC50: > 200000 nM

## O=C(Nc1cccc(-c2cn(Cc3ccc(-c4nnc(C(F)F)o4)cc3Cl)nn2)c1)N1CCOCC1 [compound 337, N-[3-[1-[[2-chloro-4-[5-(difluoromethyl)-1,3,4-oxadiazol-2-yl]phenyl]methyl]triazol-4-yl]phenyl]morpholine-4-carboxamide]
Recombinant human HDAC6
  IC50: 45 nM
Recombinant human HDAC1
  IC50: > 1e+06 nM

## CN(C)c1nc2cc(-c3nnn(Cc4ccc(-c5nnc(C(F)F)o5)cc4)n3)ccc2o1 [compound 249, 5-(2-(4-(5-(difluoromethyl)-1,3,4-oxadiazol-2-yl)benzyl)-2H-tetrazol-5-yl)-N,N-dimethylbenzo[d]oxazol-2-amine]
Recombinant human HDAC6
  IC50: 277 nM
Recombinant human HDAC1
  IC50: > 200000 nM

## Nc1ncnc2sc(-c3cn(Cc4ccc(-c5nnc(C(F)F)o5)cc4)nn3)cc12 [compound 178, 6-(1-(4-(5-(difluoromethyl)-1,3,4-oxadiazol-2-yl)benzyl)-1H-1,2,3-triazol-4-yl)thieno[2,3-d]pyrimidin-4-amine]
Recombinant human HDAC6
  IC50: 89 nM
Recombinant human HDAC1
  IC50: > 200000 nM

## Cn1c(N)nc2cc(-c3cn(Cc4ccc(-c5nnc(C(F)F)o5)cn4)cn3)ccc21 [compound 328, 5-[1-[[5-[5-(difluoromethyl)-1,3,4-oxadiazol-2-yl]pyridin-2-yl]methyl]imidazol-4-yl]-1-methylbenzimidazol-2-amine]
Recombinant human HDAC6
  IC50: 14 nM
Recombinant human HDAC1
  IC50: > 1e+06 nM

## CNC(=O)Nc1ccc(-c2nnc(Cc3ccc(-c4nnc(C(F)F)o4)cc3)o2)cn1 [compd. 170, 1-(5-(5-(4-(5-(difluoromethyl)-1,3,4-oxadiazol-2-yl)benzyl)-1,3,4-oxadiazol-2-yl)pyridin-2-yl)-3-methylurea]
Recombinant human HDAC6
  IC50: 81 nM
Recombinant human HDAC1
  IC50: > 200000 nM

## [2H]C([2H])(c1ccc(-c2nnc(C(F)F)o2)cn1)n1cc(-c2ccc(N)nc2)nn1 [compound 362, 5-[1-[dideuterio-[5-[5-(difluoromethyl)-1,3,4-oxadiazol-2-yl]pyridin-2-yl]methyl]triazol-4-yl]pyridin-2-amine]
Recombinant human HDAC6
  IC50: 18 nM
Recombinant human HDAC1
  IC50: > 1e+06 nM

## CN(Cc1ccncc1)Cc1ccc(-c2cn(Cc3c(F)cc(-c4nnc(C(F)F)o4)cc3F)nn2)cc1 [compound 179, N-(4-(1-(4-(5-(difluoromethyl)-1,3,4-oxadiazol-2-yl)-2,6-difluorobenzyl)-1H-1,2,3-triazol-4-yl)benzyl)-N-methyl-1-(pyridin-4-yl)methanamine]
Recombinant human HDAC6
  IC50: 90 nM
Recombinant human HDAC1
  IC50: > 200000 nM

## NC(=O)c1cccc(-c2cnn(Cc3ccc(-c4nnc(C(F)F)o4)cc3)c2)c1 [compound 333, 3-[1-[[4-[5-(difluoromethyl)-1,3,4-oxadiazol-2-yl]phenyl]methyl]pyrazol-4-yl]benzamide]
Recombinant human HDAC6
  IC50: 321 nM
Recombinant human HDAC1
  IC50: > 1e+06 nM

## [2H]C([2H])(c1ccc(-c2nnc(C(F)F)o2)cn1)n1cc(-c2ccc3nc(N)sc3c2)nn1 [compound 376, 6-[1-[dideuterio-[5-[5-(difluoromethyl)-1,3,4-oxadiazol-2-yl]pyridin-2-yl]methyl]triazol-4-yl]-1,3-benzothiazol-2-amine]
Recombinant human HDAC6
  IC50: 9 nM
Recombinant human HDAC1
  IC50: > 1e+06 nM

## Nc1nc2cc(-c3cnn(Cc4ccc(-c5nnc(C(F)F)o5)cc4)c3)ccc2[nH]1 [compound 332, 5-[1-[[4-[5-(difluoromethyl)-1,3,4-oxadiazol-2-yl]phenyl]methyl]pyrazol-4-yl]-1H-benzimidazol-2-amine]
Recombinant human HDAC6
  IC50: 67 nM
Recombinant human HDAC1
  IC50: > 1e+06 nM

## Nc1ccc(-c2ncc(Cc3ccc(-c4nnc(C(F)F)o4)cc3)o2)cc1 [compound 330, 4-(5-(4-(5-(difluoromethyl)-1,3,4-oxadiazol-2-yl)benzyl)oxazol-2-yl)aniline]
Recombinant human HDAC6
  IC50: 465 nM
Recombinant human HDAC1
  IC50: > 1e+06 nM

## Fc1ccccc1-c1nnn(Cc2ccc(-c3nnc(C(F)F)o3)cc2)n1 [compound 181, 2-(difluoromethyl)-5-(4-((5-(2-fluorophenyl)-2H-tetrazol-2-yl)methyl)phenyl)-1,3,4-oxadiazole]
Recombinant human HDAC6
  IC50: 92 nM
Recombinant human HDAC1
  IC50: > 200000 nM

## O=c1[nH]c2cc(-c3nnn(Cc4ccc(-c5nnc(C(F)F)o5)cc4)n3)ccc2o1 [compound 225, 5-(2-(4-(5-(difluoromethyl)-1,3,4-oxadiazol-2-yl)benzyl)-2H-tetrazol-5-yl)benzo[d]oxazol-2 (3H)-one]
Recombinant human HDAC6
  IC50: 169 nM
Recombinant human HDAC1
  IC50: > 200000 nM

## Nc1nc2cc(-c3cnn(Cc4ccc(-c5nnc(C(F)F)o5)cn4)c3)ccc2[nH]1 [compound 331, 5-[1-[[5-[5-(difluoromethyl)-1,3,4-oxadiazol-2-yl]pyridin-2-yl]methyl]pyrazol-4-yl]-1H-benzimidazol-2-amine]
Recombinant human HDAC6
  IC50: 52 nM
Recombinant human HDAC1
  IC50: > 1e+06 nM

## O=C(c1cccc(-c2nnn(Cc3c(F)cc(-c4nnc(C(F)F)o4)cc3F)n2)c1)N1CCOCC1 [compound 112, (3-(2-(4-(5-(difluoromethyl)-1,3,4-oxadiazol-2-yl)-2,6-difluorobenzyl)-2H-tetrazol-5-yl)phenyl)(morpholino)methanone]
Recombinant human HDAC6
  IC50: 42 nM
Recombinant human HDAC1
  IC50: > 200000 nM
